In data set [1] the test system is MCF7. In words: Antiproliferative activity against human MCF7 cells assessed as incorporation of [methyl-3H]thymidine into cellular DNA in serum free medium in absence of 6.2 ug/mL RNase 1. Format: functional, cell-based.
Data set [2] has as its system MCF7. Nature of the data set: Antiproliferative activity against human MCF7 cells assessed as incorporation of [methyl-3H]thymidine into cellular DNA in serum free medium in presence of 6.2 ug/mL RNase 1. In kind it is functional, cell-based.
Data set [3] is described as follows: Prodrug stability assessed as compound degradation at 37 degC after 11 hrs in absence of ribonuclease 1 at pH 6.0 by HPLC analysis. The note with it: buffer, pH 6, 11 h. In kind it is physicochemical.
The nature of data set [4]: Prodrug stability assessed as 4-hydroxytamoxifen release at 40 uM in pH 7.4 ribonuclease free 0.10 M sodium phosphate buffer containing NaCl and in absence of RNase 1. In kind it is physicochemical. As to conditions: pH 7.4, 40 µM.
Data set [5] in a line: Prodrug stability assessed as 4-hydroxytamoxifen release at 40 uM in serum free medium in absence of RNase 1. Format: ADME.
The target in data set [6] is T1, Ribonuclease pancreatic (Homo sapiens, UniProt P07998).
T1 sequence (P07998 whole entry): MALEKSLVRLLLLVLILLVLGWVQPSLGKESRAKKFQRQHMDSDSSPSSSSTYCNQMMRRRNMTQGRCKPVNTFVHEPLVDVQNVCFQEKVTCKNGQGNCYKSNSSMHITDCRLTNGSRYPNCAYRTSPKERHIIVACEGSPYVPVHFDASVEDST
Nature of the data set: Prodrug activation assessed as half life for ribonuclease 1 mediated 4-hydroxytamoxifen release in MES-NaOH buffer at pH 6.0 by HPLC analysis.

Structures are written as SMILES.

On to `CCC(=C(c1ccc(O)cc1)c1ccc(OCCN(C)C)cc1)c1ccccc1`, for which the IC50 in data set [1] and in data set [2] was 2.7 µM throughout.
For `CC/C(=C(/c1ccc(OCCN(C)C)cc1)c1ccc(OP(=O)(O)O[C@H]2[C@@H](O)[C@H](n3ccc(=O)[nH]c3=O)O[C@@H]2CO)cc1)c1ccccc1`, in data set [3], the Drug degradation is on record as < 6%. For the same compound, the t1/2 turned out to be 9.4 h in data set [4], 9 h in data set [5] and 4 h in data set [6]. In addition, the IC50 in data set [1] is 16.7 µM; in data set [2], 5.2 µM.

For orientation: IC50 means the concentration needed to halve the response being measured.

Source of the values: ChEMBL document CHEMBL2203247, “Ribonuclease-Activated Cancer Prodrug” (ACS Med Chem Lett, 2012).
